According to US9708314B2, “Heterocyclic amide compound” (NISSAN CHEMICAL INDUSTRIES, LTD., priority 2013, dated 2017):

Assays:
Assay type in all cases: in vivo
[1] = system: directly sowed Oryza sativa; assay: Test Example 3: effect on crop by application to foliage (Wagner pot, water depth 0.1-0.5 cm); settings: Nineteenth Table; application to foliage; application herbicide amount 320 g/ha
Procedure, shortened: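 Visual 0–5 rating of herbicidal ratio, taken 3 weeks after foliar spray of a diluted emulsion formulation at rates expressed as g/ha. Plants had been sown in alluvial soil under 0.1–0.5 cm water and grown 14 days at 25–30 °C under glass before application.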

Abutilon theophrasti = assay: Test Example 4: herbicidal effect by application to foliage (diluvial soil, plastic box); settings: application to foliage, 320 g/ha
Procedure, shortened: (§1)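 Plants were grown in sterilized diluvial soil in a greenhouse at 25-30° C for 14 days, then sprayed on stems and leaves with water-diluted emulsion formulation at set rates in g/ha. Weed control and crop injury were scored 3 weeks after treatment on a 0-5 herbicidal-ratio scale, from 0 (≤5%) to 5 (≥90%).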

Alopecurus myosuroides = assay: as above; settings: application to foliage, 320 g/ha
Procedure, shortened: as §1

Amaranthus retroflexus = assay: as above; settings: application to foliage, 320 g/ha
Procedure, shortened: as §1

Apera spica-venti. = assay: as above; settings: application to foliage, 320 g/ha
Procedure, shortened: as §1

Avena fatua = assay: as above; settings: application to foliage, 320 g/ha
Procedure, shortened: as §1

Chenopodium album = assay: as above; settings: application to foliage, 320 g/ha
Procedure, shortened: as §1

Digitaria ciliaris = assay: as above; settings: application to foliage, 320 g/ha
Procedure, shortened: as §1

[2] = system: Echinochloa crus-galli var. crus-galli; assay: as above; settings: application to foliage, 320 g/ha
Procedure, shortened: as §1

Galium spurium = assay: as above; settings: application to foliage, 320 g/ha
Procedure, shortened: as §1

Lolium multiflorum Lam. = assay: as above; settings: application to foliage, 320 g/ha
Procedure, shortened: as §1

Setaria viridis = assay: as above; settings: application to foliage, 320 g/ha
Procedure, shortened: as §1

Stellaria media = assay: as above; settings: application to foliage, 320 g/ha
Procedure, shortened: as §1

Veronica persica = assay: as above; settings: application to foliage, 320 g/ha
Procedure, shortened: as §1

[3] = system: Beta vulgaris ssp. vulgaris; assay: Test Example 4: effect on crop by application to foliage (diluvial soil, plastic box); settings: application to foliage, 320 g/ha
Procedure, shortened: as §1

Brassica campestris L. = assay: as above; settings: application to foliage, 320 g/ha
Procedure, shortened: as §1

Glycine max = assay: as above; settings: application to foliage, 320 g/ha
Procedure, shortened: as §1

Triticum aestivum = assay: as above; settings: application to foliage, 320 g/ha
Procedure, shortened: as §1

[4] = system: directly sowed Oryza sativa; assay: as above; settings: application to foliage, 320 g/ha
Procedure, shortened: as §1

Row | SMILES | b (effect on crop grade) [1] | herbicidal effect, M (Abutilon theophrasti) (Abutilon theophrasti) | herbicidal effect, J (Alopecurus myosuroides) (Alopecurus myosuroides) | herbicidal effect, N (Amaranthus retroflexus) (Amaranthus retroflexus) | herbicidal effect, L (Apera spica-venti.) (Apera spica-venti.) | herbicidal effect, I (Avena fatua) (Avena fatua) | herbicidal effect, O (Chenopodium album) (Chenopodium album) | herbicidal effect, F (Digitaria ciliaris) (Digitaria ciliaris) | herbicidal effect, H (Echinochloa crus-galli var. crus-galli) [2] | herbicidal effect, Q (Galium spurium) (Galium spurium) | herbicidal effect, K (Lolium multiflorum Lam.) (Lolium multiflorum Lam.) | herbicidal effect, G (Setaria viridis) (Setaria viridis) | herbicidal effect, P (Stellaria media) (Stellaria media) | herbicidal effect, R (Veronica persica) (Veronica persica) | effect on crop, f (Beta vulgaris ssp. vulgaris) [3] | effect on crop, g (Brassica campestris L.) (Brassica campestris L.) | effect on crop, c (Glycine max) (Glycine max) | effect on crop, e (Triticum aestivum) (Triticum aestivum) | effect on crop, d (directly sowed Oryza sativa) [4]
1 | Cn1nnnc1NC(=O)c1ccc(C(F)(F)F)n2c(NCC(F)(F)F)nnc12 [2-081] | 4 (Herbicidal ratio of 70% or more and less than 90%) | 4 (Herbicidal ratio of 70% or more and less than 90%) | 1 (Herbicidal ratio of 5% or more and less than 20%) | 5 (Herbicidal ratio of 90% or more (almost completely withered)) | 1 (Herbicidal ratio of 5% or more and less than 20%) | 3 (Herbicidal ratio of 40% or more and less than 70%) | 5 (Herbicidal ratio of 90% or more (almost completely withered)) | 4 (Herbicidal ratio of 70% or more and less than 90%) | 5 (Herbicidal ratio of 90% or more (almost completely withered)) | 3 (Herbicidal ratio of 40% or more and less than 70%) | 1 (Herbicidal ratio of 5% or more and less than 20%) | 3 (Herbicidal ratio of 40% or more and less than 70%) | 5 (Herbicidal ratio of 90% or more (almost completely withered)) | 4 (Herbicidal ratio of 70% or more and less than 90%) | 5 (Herbicidal ratio of 90% or more (almost completely withered)) | 4 (Herbicidal ratio of 70% or more and less than 90%) | 0 (Herbicidal ratio of 5% or less (almost no effect)) | 2 (Herbicidal ratio of 20% or more and less than 40%) | 3 (Herbicidal ratio of 40% or more and less than 70%)
2 | Cn1nnnc1NC(=O)c1ccc(C(F)(F)F)n2c(SCC3CCCO3)nnc12 (stereo not shown) [2-085] | 4 (Herbicidal ratio of 70% or more and less than 90%) | 5 (Herbicidal ratio of 90% or more (almost completely withered)) | 3 (Herbicidal ratio of 40% or more and less than 70%) | 5 (Herbicidal ratio of 90% or more (almost completely withered)) | 4 (Herbicidal ratio of 70% or more and less than 90%) | 4 (Herbicidal ratio of 70% or more and less than 90%) | 5 (Herbicidal ratio of 90% or more (almost completely withered)) | 5 (Herbicidal ratio of 90% or more (almost completely withered)) | 5 (Herbicidal ratio of 90% or more (almost completely withered)) | 4 (Herbicidal ratio of 70% or more and less than 90%) | 3 (Herbicidal ratio of 40% or more and less than 70%) | 5 (Herbicidal ratio of 90% or more (almost completely withered)) | 5 (Herbicidal ratio of 90% or more (almost completely withered)) | 4 (Herbicidal ratio of 70% or more and less than 90%) | 5 (Herbicidal ratio of 90% or more (almost completely withered)) | 4 (Herbicidal ratio of 70% or more and less than 90%) | 2 (Herbicidal ratio of 20% or more and less than 40%) | 3 (Herbicidal ratio of 40% or more and less than 70%) | 5 (Herbicidal ratio of 90% or more (almost completely withered))
3 | Cn1nnnc1NC(=O)c1ccc(C(F)(F)F)n2c(SCC#N)nnc12 [2-086] | 3 (Herbicidal ratio of 40% or more and less than 70%) | 5 (Herbicidal ratio of 90% or more (almost completely withered)) | 1 (Herbicidal ratio of 5% or more and less than 20%) | 5 (Herbicidal ratio of 90% or more (almost completely withered)) | 4 (Herbicidal ratio of 70% or more and less than 90%) | 3 (Herbicidal ratio of 40% or more and less than 70%) | 5 (Herbicidal ratio of 90% or more (almost completely withered)) | 5 (Herbicidal ratio of 90% or more (almost completely withered)) | 5 (Herbicidal ratio of 90% or more (almost completely withered)) | 4 (Herbicidal ratio of 70% or more and less than 90%) | 2 (Herbicidal ratio of 20% or more and less than 40%) | 5 (Herbicidal ratio of 90% or more (almost completely withered)) | 4 (Herbicidal ratio of 70% or more and less than 90%) | 5 (Herbicidal ratio of 90% or more (almost completely withered)) | 5 (Herbicidal ratio of 90% or more (almost completely withered)) | 3 (Herbicidal ratio of 40% or more and less than 70%) | 0 (Herbicidal ratio of 5% or less (almost no effect)) | 2 (Herbicidal ratio of 20% or more and less than 40%) | 4 (Herbicidal ratio of 70% or more and less than 90%)
4 | CC(C)N(C)c1nnc2c(C(=O)Nc3nnnn3C)ccc(C(F)(F)F)n12 [2-082] | 5 (Herbicidal ratio of 90% or more (almost completely withered)) | 5 (Herbicidal ratio of 90% or more (almost completely withered)) | 4 (Herbicidal ratio of 70% or more and less than 90%) | 5 (Herbicidal ratio of 90% or more (almost completely withered)) | 4 (Herbicidal ratio of 70% or more and less than 90%) | 2 (Herbicidal ratio of 20% or more and less than 40%) | 5 (Herbicidal ratio of 90% or more (almost completely withered)) | 5 (Herbicidal ratio of 90% or more (almost completely withered)) | 5 (Herbicidal ratio of 90% or more (almost completely withered)) | 4 (Herbicidal ratio of 70% or more and less than 90%) | 4 (Herbicidal ratio of 70% or more and less than 90%) | 5 (Herbicidal ratio of 90% or more (almost completely withered)) | 5 (Herbicidal ratio of 90% or more (almost completely withered)) | 4 (Herbicidal ratio of 70% or more and less than 90%) | 5 (Herbicidal ratio of 90% or more (almost completely withered)) | 5 (Herbicidal ratio of 90% or more (almost completely withered)) | 1 (Herbicidal ratio of 5% or more and less than 20%) | 4 (Herbicidal ratio of 70% or more and less than 90%) | 5 (Herbicidal ratio of 90% or more (almost completely withered))
